{"source": "patent US20250353819A1", "about": "“ARYL HYDANTOIN COMPOUNDS AND METHODS OF USE” (priority 2022, published 2025)", "key": {"androgen-receptor": {"test_system": "androgen-receptor", "assay": "DHT-induced (KLK3, FKBP5) and DHT-repressed (ZFP36L1) transcripts in LAPC4 cells", "format": "cell-based", "settings": "Compound IE up to 10 μM"}, "S. mansoni [1]": {"test_system": "S. mansoni", "settings": "cited from earlier work"}, "LAPC4 cells": {"test_system": "LAPC4 cells", "assay": "Androgen-dependent cell-based assay (DHT, LAPC4)", "settings": "Homo sapiens", "description": "Androgen-Dependent Cell-based Assay. As described by Jones and Diamond (2008), LAPC4 cells were cultured in phenol red free RPMI 1640 media supplemented with antibiotics and 10% FBS. […] […] Mean-effect plots (log[compound] vs. log[fractional effect]) were generated to determine the IC50 values for each test compound or combinations of test compounds at constant ratios."}, "[2]": {"assay": "In vitro metabolic stability, human liver microsomes", "format": "in vitro ADME", "description": "(§1) In Vitro Metabolic Stability. As described by Charman et al. (2020), metabolic stability assays were performed by incubating test compounds in liver microsomes at 37° C. and 0.4 mg/mL protein concentration. The metabolic reaction was initiated by the addition of an NADPH-regenerating system and quenched at various time points over a 60 min incubation period by the addition of acetonitrile containing diazepam as internal standard. Control samples (containing no NADPH) were included (and quenched at 2, 30 and 60 min) to monitor for potential degradation in the absence of cofactor."}, "[3]": {"assay": "Kinetic solubility (nephelometry)", "format": "physicochemical", "description": "Kinetic Solubility. Compounds in DMSO (10 mg/mL) were diluted into either pH 6.5 phosphate buffer or 0.01 M HCl (approx. pH 2.0) with the final DMSO concentration being 1%. Samples were then analysed via nephelometry to determine a solubility range (Bevan and Lloyd, 2000)."}, "[4]": {"assay": "Mouse exposure / pharmacokinetic studies", "format": "in vivo, mice", "settings": "male, Swiss outbred, mouse, in vivo"}, "S. mansoni [5]": {"test_system": "S. mansoni", "assay": "Antischistosomal screen in S. mansoni-infected mice", "format": "in vivo, Schistosoma mansoni", "settings": "for ED50: Schistosoma mansoni; for Worm burden reduction (WBR): single oral dose Ro 13-3978 100 mg/kg, praziquantel 400 mg/kg", "source_text": "Antischistosomal Screen. […] As described by Lombardo et al. (2019), cercariae of S. mansoni were obtained from infected Biomphalaria glabrata. By way of example, NMRI mice were infected subcutaneously with approximately 100 S. mansoni cercariae. […] Untreated mice (n=8) served as controls. At 21 d post-treatment, animals were killed by the CO2 method and dissected. Worms were removed by picking, then sexed and counted."}, "[6]": {"assay": "Partition coefficient (Log D) by gradient HPLC", "format": "physicochemical", "source_text": "Partition Coefficient. Partition coefficient values (Log D) of the test compounds were estimated by correlation of their chromatographic retention properties against the characteristics of a series of standard compounds with known partition coefficient values using gradient HPLC (modification of a method reported by Lombardo et al., 2001)."}, "[7]": {"assay": "In vitro metabolic stability, mouse liver microsomes", "format": "in vitro ADME", "description": "as §1"}, "[8]": {"settings": "DHT-induced, androgen-dependent LAPC4 prostate cancer cell line, read-out: LAPC4 IC50"}, "[9]": {"settings": "adult stage, single oral dose, mouse model, read-out: S. mansoni ED50, adult"}, "[10]": {"settings": "juvenile stage, single oral dose, mouse model, read-out: S. mansoni ED50, juvenile"}, "[11]": {"settings": "pH 7.4, chromatographic estimate, read-out: gLogD7.4"}}, "note": "Where two headings read alike, the source gives them in different places."}
{"smiles": "CC1(C)NC(=O)N(c2ccc([N+](=O)[O-])c(C(F)(F)F)c2)C1=O", "note": "[nilutamide, reference compound]", "values": [{"measurement": "levels of DHT-induced (KLK3, FKBP5) and DHT-repressed (ZFP36L1) transcripts", "setting": "androgen-receptor", "result": "inhibited the DHT-induced increase of KLK3 and FKBP5 and prevented the repression of ZFP36L1"}, {"measurement": "antischistosomal activity", "setting": "S. mansoni [1]; Keiser et al., 2010", "result": "very weak"}]}
{"smiles": "[2H]C([2H])([2H])C1(C([2H])([2H])[2H])NC(=O)N(c2ccc(F)c(C(F)(F)F)c2)C1=O", "note": "[IB, 3-(4-Fluoro-3-(trifluoromethyl)phenyl)-5,5-bis(methyl-d3)imidazolidine-2,4-dione]", "values": [{"measurement": "IC50", "setting": "LAPC4 cells; [8]", "result": 13, "unit": "µM"}, {"measurement": "microsomal CLint", "setting": "[2]; human, microsomes", "result": "< 7", "unit": "µL/min/mg"}, {"measurement": "Sol2.0", "setting": "[3]; pH 2", "result": ">100/>100 μg/mL"}, {"measurement": "Sol6.5", "setting": "[3]; pH 6.5", "result": ">100/>100 μg/mL"}, {"measurement": "AUC(0-t)", "setting": "[4]; po, 100 mg/kg", "result": 1820, "unit": "µg·h/mL"}, {"measurement": "Cmax", "setting": "[4]; po, 100 mg/kg", "result": 43000, "unit": "ng/mL"}, {"measurement": "ED50", "setting": "S. mansoni [5]; [9]", "result": 7.3, "unit": "mg/kg"}, {"measurement": "ED50", "setting": "S. mansoni [5]; [10]", "result": 73, "unit": "mg/kg"}, {"measurement": "chromatographic logD", "setting": "[6]; [11]", "result": 2.7}, {"measurement": "microsomal CLint", "setting": "[7]; mouse, microsomes", "result": "< 7", "unit": "µL/min/mg"}]}
{"smiles": "O=C(C1CCCCC1)N1CC(=O)N2CCc3ccccc3C2C1", "note": "(stereo not drawn) [Praziquantel, praziquantel, reference compound]", "values": [{"measurement": "activity against juvenile stages of the parasite", "setting": "S. mansoni [1]; schistosome mouse model, literature", "result": "no significant activity"}, {"measurement": "Worm burden reduction (WBR)", "setting": "S. mansoni [5]; NOD-SCID (Prkdc^scid) mice", "result": 83, "unit": "%"}, {"measurement": "Worm burden reduction (WBR)", "setting": "S. mansoni [5]; NOD-SCID (Prkdc^scid) mice, listed as Praziquantel (PZQ)", "result": 83, "unit": "%"}, {"measurement": "Worm burden reduction (WBR)", "setting": "S. mansoni [5]; outbred NMRI mice", "result": 96, "unit": "%"}]}
{"smiles": "CC1(C(F)F)NC(=O)N(c2ccc(F)c(C(F)(F)F)c2)C1=O", "note": "(stereo not drawn) [ID, 5-(Difluoromethyl)-3-(4-fluoro-3-(trifluoromethyl)phenyl)-5-methylimidazolidine-2,4-dione]", "values": [{"measurement": "IC50", "setting": "LAPC4 cells; [8]", "result": 4.2, "unit": "µM"}, {"measurement": "microsomal CLint", "setting": "[2]; human, microsomes", "result": "< 7", "unit": "µL/min/mg"}, {"measurement": "Sol2.0", "setting": "[3]; pH 2", "result": "50-100/50-100 μg/mL"}, {"measurement": "Sol6.5", "setting": "[3]; pH 6.5", "result": "50-100/50-100 μg/mL"}, {"measurement": "AUC(0-t)", "setting": "[4]; po, 100 mg/kg", "result": 1650, "unit": "µg·h/mL"}, {"measurement": "Cmax", "setting": "[4]; po, 100 mg/kg", "result": 42000, "unit": "ng/mL"}, {"measurement": "ED50", "setting": "S. mansoni [5]; [9]", "result": 9, "unit": "mg/kg"}, {"measurement": "ED50", "setting": "S. mansoni [5]; [10]", "result": 88, "unit": "mg/kg"}, {"measurement": "chromatographic logD", "setting": "[6]; pH 7.4", "result": 3.2}, {"measurement": "microsomal CLint", "setting": "[7]; mouse, microsomes", "result": "< 7", "unit": "µL/min/mg"}]}
{"smiles": "CC1(C(F)(F)F)NC(=O)N(c2ccc(F)c(C(F)(F)F)c2)C1=O", "note": "(stereo not drawn) [IA, 3-(4-Fluoro-3-(trifluoromethyl)phenyl)-5-methyl-5-(trifluoromethyl)imidazolidine-2,4-dione]", "values": [{"measurement": "IC50", "setting": "LAPC4 cells; LAPC4, read-out: LAPC4 IC50", "result": 5.2, "unit": "µM"}, {"measurement": "microsomal CLint", "setting": "[2]; human liver microsomes, read-out: h CLint", "result": "< 7", "unit": "µL/min/mg"}, {"measurement": "Sol2.0", "setting": "[3]; kinetic solubility, 0.01 M HCl (approx. pH 2.0)", "result": "25-50/25-50 μg/mL"}, {"measurement": "Sol6.5", "setting": "[3]; kinetic solubility, pH 6.5 phosphate buffer", "result": "25-50/25-50 μg/mL"}, {"measurement": "AUC(0-t)", "setting": "[4]; 100 mg/kg PO in mice, read-out: AUC0-last", "result": 966, "unit": "µg·h/mL"}, {"measurement": "Cmax", "setting": "[4]; 100 mg/kg PO in mice, read-out: Cmax", "result": 28000, "unit": "ng/mL"}, {"measurement": "ED50", "setting": "S. mansoni [5]; po, read-out: S. mansoni ED50, adult", "result": 14, "unit": "mg/kg"}, {"measurement": "ED50", "setting": "S. mansoni [5]; po, read-out: S. mansoni ED50, juvenile", "result": 70, "unit": "mg/kg"}, {"measurement": "chromatographic logD", "setting": "[6]; [11]", "result": 3.5}, {"measurement": "microsomal CLint", "setting": "[7]; mouse liver microsomes, read-out: m CLint", "result": "< 7", "unit": "µL/min/mg"}]}
